Data taken from patent US20220088007A1 (priority 2010, published 2022).
Where two headings read alike, the source gives them in different places.

What was measured:
[1] = Example 1 (NB-233): single-dose crossover food-effect study of NB 8/90 trilayer tablets, plasma pharmacokinetics; details: for increase in Cmax: high-fat conditions compared to fasted conditions; for Cmax between high-fat and fasted conditions (in words): 90% CIs within 80% to 125% range
[2] = Example 2 (NB-236): steady-state food-effect extension study of NB 8/90 tablets, plasma pharmacokinetics
Experimental: A phase I, open label, steady-state study was performed to assess the plasma pharmacokinetics of NB tablets under fed and fasted conditions. An extension of the study allowed for the evaluation of the effect of food on the pharmacokinetics of NB tablets.
Days 1-31 of the study were devoted to the primary investigation of metoprolol pharmacokinetics in the context of steady-state dosing with NB tablets. Subjects (n=18) received a metoprolol 50 mg IR tablet on Days 1 and 31. NB was dose escalated every week from a single NB 8/90 tablet per day on Day 3 to a maximum dose of NB 32/360 (two NB 8/90 tablets BID) starting on Day 24. In the clinic setting (Days 1-3 and 27-31), standardized meals were provided before dosing and pharmacokinetic sampling. These meals were moderate in fat and caloric content. Subjects were instructed to take study medication with food during the outpatient (Days 4-26) phase of the study.
Subjects enrolling in the optional extension continued BID dosing administration (with moderate meals) through Day 32. […] The evening dose on Day 33, study medication was given with food (“moderate” meal). For Day 34, subjects received their morning dose under the opposite condition from what they received on the morning of Day 33. […] For purposes of studying the effects of food, the comparisons were between Day 30 pharmacokinetics (“moderate” meal) and the fasted and high-fat meal conditions administered on Day 33 and Day 34.

[3] = Example 3 (NB-239 vs NB-237): single dose NB 8/90 tablets, moderate-fat, moderate-calorie meal vs fasted, cross-study comparison; details: for Cmax: single dose two NB 8/90 tablets
[4] = clinical; details: human
[5] = human, in vivo
[6] = in vivo
[7] = clinical; details: both, human
[8] = fed moderate-fat meal, mean ± SD
[9] = fed moderate-calorie, moderate-fat meal, mean ± SD
[10] = fed (high-fat meal), arithmetic mean ± SD

Structure (SMILES): Oc1ccc2c3c1O[C@H]1[C@H](O)CC[C@@]4(O)[C@@H](C2)N(CC2CC2)CC[C@]314 [6β-naltrexol]
- increase in Cmax [1]: 52%
- effect of food (moderate-fat or high-fat meal) on exposure relative to the fasted state (in words) ([2]; steady state, two NB 8/90 tablets): neither meal type appeared to affect

Structure (SMILES): CC(NC(C)(C)C)C(=O)c1cccc(Cl)c1 (stereo not shown) [Bupropion, bupropion]
- AUC0-t ([3]; fasted, mean ± SD): 1496.01 ± 323.04 ng·h/mL
- AUC0-∞ ([3]; fasted, mean ± SD): 1574.93 ± 346.49 ng·h/mL
- t1/2 ([3]; fasted, mean ± SD): 19.83 ± 3.24 h
- AUC0-∞ [3, 8]: 1384.85 ± 330.19 ng·h/mL
- Cmax ([3]; fasted, mean ± SD): 156 ± 36.9 ng/mL
- Cmax [3, 9]: 154 ± 55.4 ng/mL
- AUC0-t ([1]; fasted, arithmetic mean ± SD): 1550.91 ± 549.08 ng·h/mL
- Tmax ([4]; in vivo): 2.07 h
- AUC0-t % MR, fed (moderate-fat) to fasted [5]: 91.55%
- AUC0-t Fed to Fasted % MR ([6]; both, human): 139.50%
- t1/2 apparent terminal elimination half-life ([6]; both, human): 20.44 h
- apparent terminal elimination t1/2, fed vs fasted conditions (in words) [6]: similar
- median Tmax, fed vs fasted conditions (in words) [6]: one hour shorter
- AUC(0-inf) ([7]; in vivo): 1620 ± 574 ng·h/mL
- Cmax ([7]; in vivo): 161 ± 52.1 ng/mL
- Cmin ([2]; both, human, in vivo): 41.6 ± 10.4 ng/mL
- AUC0-t ([2]; both, human, in vivo, po): 965 ± 249 ng·h/mL
- Tmax ([2]; both, human, in vivo, po, Tmax): 1.99 h
- Cmax ([2]; steady state, morning dose two NB 8/90 tablets fasted, Day 33 or 34, mean ± SD): 131 ± 38.2 ng/mL
- Cmax ([2]; steady state, morning dose two NB 8/90 tablets fed high-fat meal, Day 33 or 34, mean ± SD): 167 ± 43.4 ng/mL
- Cmax ([2]; steady state, two NB 8/90 tablets BID, fed moderate meal, Day 30, mean ± SD): 156 ± 52.5 ng/mL

Structure (SMILES): O=C1CC[C@@]2(O)[C@H]3Cc4ccc(O)c5c4[C@@]2(CCN3CC2CC2)[C@H]1O5 [Naltrexone, naltrexone]
- AUC0-t [3, 8]: 13.41 ± 6.93 ng·h/mL
- AUC0-∞ [3, 8]: 13.63 ± 7.15 ng·h/mL
- Tmax ([3]; fed moderate-fat meal, median (minimum, maximum)): 2.00 (0.75, 6.00) hr
- Cmax [3, 9]: 2.65 ± 1.18 ng/mL
- AUC0-t ([1]; fasted, arithmetic mean ± SD): 7.98 ± 4.04 ng·h/mL
- AUC0-t [1, 10]: 16.42 ± 8.70 ng·h/mL
- AUC0-∞ [1, 10]: 16.65 ± 8.70 ng·h/mL
- Tmax ([1]; fed (high-fat meal), median (minimum, maximum)): 2.00 (0.75, 6.00) hr
- median Tmax, fed vs fasted conditions (in words) ([1]; fed vs fasted): similar
- AUC0-t Fed to Fasted % MR ([1]; high-fat fed vs fasted): 211.50%
- Cmax ([1]; plasma, single dose two NB 8/90 tablets, fed (high-fat meal), arithmetic mean ± SD): 4.00 ± 2.52 ng/mL
- AUC0-t ([4]; plasma, oral): 8.3 ± 6.41 ng·h/mL
- AUC(0-inf) ([4]; plasma, oral): 8.55 ± 6.46 ng·h/mL
- Cmax ([4]; plasma, oral): 1.34 ± 0.763 ng/mL
- Tmax ([4]; plasma, oral): 1.27 h
- AUC(0-inf) ([7]; plasma, oral): 8.39 ± 4.26 ng·h/mL
- Tmax ([7]; plasma, oral): 2 h
- AUC0-t ([2]; both, human, plasma, po, fasted, Day 33 or 34, mean ± SD): 7.07 ± 2.88 ng·h/mL
- AUC0-t ([2]; both, human, plasma, po, fed high-fat meal, Day 33 or 34, mean ± SD): 11.8 ± 4.68 ng·h/mL
- AUC0-t ([2]; both, human, plasma, po, fed moderate meal, Day 30, mean ± SD): 11.7 ± 4.45 ng·h/mL
- Cmax ([2]; both, human, plasma, po, Cmax, steady state, morning dose two NB 8/90 tablets fasted, Day 33 or 34, mean ± SD): 1.47 ± 0.71 ng/mL
- Cmax ([2]; both, human, plasma, po, Cmax, steady state, morning dose two NB 8/90 tablets fed high-fat meal, Day 33 or 34, mean ± SD): 2.84 ± 1.53 ng/mL
- Cmax ([2]; both, human, plasma, po, Cmax, steady state, two NB 8/90 tablets BID, fed moderate meal, Day 30, mean ± SD): 2.6 ± 1.02 ng/mL
- Tmax ([2]; both, human, plasma, po, Tmax, fasted, Day 33 or 34, median (minimum, maximum)): 0.75 h
- Tmax ([2]; both, human, plasma, po, Tmax, fed moderate meal, Day 30, median (minimum, maximum)): 2 h
- Cmin ([2]; fasted, Day 33 or 34, mean ± SD): 0.172 ± 0.0758 ng/mL
- Cmin ([2]; fed high-fat meal, Day 33 or 34, mean ± SD): 0.159 ± 0.0895 ng/mL
- Tmax ([2]; fed high-fat meal, Day 33 or 34, median (minimum, maximum)): 3.00 (1.25, 6.00) hr
- Cmin ([2]; fed moderate meal, Day 30, mean ± SD): 0.195 ± 0.105 ng/mL
- lower Cmin versus the fasted condition ([2]; high-fat, high-calorie meal): 12%
- higher Cmin versus the fasted condition ([2]; moderate-fat, moderate-calorie meal): 10%
- Cmin % MR, high-fat fed to fasted ([2]; steady state): 88.39%
- Cmin % MR, high-fat to moderate-fat ([2]; steady state): 80.15%
- Cmin % MR, moderate-fat fed to fasted ([2]; steady state): 110.04%
- effect of changing meal from moderate-fat, moderate-calorie to high-fat, high-calorie (in words) ([2]; steady state, morning dose): no effect

Structure (SMILES): CC(NC(C)(C)C)C(O)c1cccc(Cl)c1 (stereo not shown) [erythrohydrobupropion]
- Cmax between high-fat and fasted conditions (in words) [1]: comparable

Structure (SMILES): C[C@H]1NC(C)(C)CO[C@]1(O)c1cccc(Cl)c1 [hydroxybupropion]
- Cmax between high-fat and fasted conditions (in words) [1]: comparable

Structure (SMILES): C[C@H](NC(C)(C)C)[C@@H](O)c1cccc(Cl)c1 [threohydrobupropion]
- increase in Cmax [1]: 26%
